According to patent US20240083857A1, “2-Methyl-Quinazolines” (Bayer Pharma Aktiengesellschaft, priority 2017, published 2024):

What was measured:
[1] = molecular target: K-Ras^G12C : hSOS1 interaction (Homo sapiens, UniProt Q07889); assay: Biochemical assay 1: K-Ras^G12C interaction assay with hSOS1 (HTRF); format: binding; conditions: for IC50: E-notation values, unit inferred, read-out: Assay 1 (KRAS-SOS interaction) IC50; for inhibition at 20 µM: read-out: Assay 1 (KRAS-SOS Interaction) activity expressed as % inhibition at 20 μM
[2] = molecular target: human SOS1 (loading of human K-Ras^G12C-GDP with fluorescent GTP-analog) (Homo sapiens, UniProt Q07889); assay: Biochemical assay 3: K-Ras^G12C activation assay by hSOS1 (HTRF); conditions: for IC50: E-notation values, unit inferred, read-out: Assay 3 (KRAS-Activation) IC50; for inhibition at 20 µM: read-out: Assay 3 (KRAS-Activation by SOS no GTP) activity expressed as % inhibition at 20 μM, no GTP

Compound: COc1cc2nc(C)nc(NC(C)c3sc(-c4ccccc4CNC(=O)OC(C)(C)C)cc3Cl)c2cc1OC (stereo not shown) [Example 429, tert-butyl [2-(4-chloro-5-{1-[(6,7-dimethoxy-2-methylquinazolin-4-yl)amino]ethyl}thiophen-2-yl)benzyl]carbamate]
- IC50 [1]: 6.09 µM
- IC50 [2]: 5.04 µM

Compound: COc1cc2nc(C)nc(NC(C)c3ccc(-c4ccccc4C(O)C(F)(F)F)s3)c2cc1OC (stereo not shown) [Example 380, 1-[2-(5-{1-[(6,7-dimethoxy-2-methylquinazolin-4-yl)amino]ethyl}thiophen-2-yl)phenyl]-2,2,2-trifluoroethanol]
- IC50 [1]: 0.937 µM
- IC50 [2]: 2.74 µM

Compound: COC(=O)c1ccc2nc(C)nc(N[C@H](C)c3cccc(Cl)c3)c2c1 [Example 371, methyl 4-{[(1R)-1-(3-chlorophenyl)ethyl]amino}-2-methylquinazoline-6-carboxylate]
- IC50 [1]: 1.89 µM
- IC50 [2]: 3.35 µM

Compound: CCCCC(O)c1ccccc1-c1ccc(C(C)Nc2nc(C)nc3cc(OC)c(OC)cc23)s1 (stereo not shown) [Example 377, 1-[2-(5-{1-[(6,7-dimethoxy-2-methylquinazolin-4-yl)amino]ethyl}thiophen-2-yl)phenyl]pentan-1-ol]
- IC50 [1]: 5.14 µM
- IC50 [2]: 15.1 µM

Compound: COc1cc(C)c2nc(C)nc(N[C@H](C)c3cccc(Cl)c3)c2c1 [Example 396, N-[(1R)-1-(3-chlorophenyl)ethyl]-6-methoxy-2,8-dimethylquinazolin-4-amine]
- IC50 [1]: 2.24 µM
- IC50 [2]: 3.13 µM

Compound: COc1cc2nc(C)nc(N[C@H](C)c3cccc(-c4ccccc4CC(N)=O)c3)c2cc1OC [Example 393, 2-(3′-{(1R)-1-[(6,7-dimethoxy-2-methylquinazolin-4-yl)amno]ethyl}biphenyl-2-yl)acetamide]
- IC50 [1]: 0.244 µM
- IC50 [2]: 1.04 µM

Compound: Cc1nc(NC(C)c2ccc(-c3ccccc3CN(C)C)s2)c2cc(N3CCN(C)CC3)ccc2n1 (stereo not shown) [Example 417, N-[1-(5-{2-[(dimethylamino)methyl]phenyl}thiophen-2-yl)ethyl]-2-methyl-6-(4-methylpiperazin-1-yl)quinazolin-4-amine]
- IC50 [1]: 0.0455 µM
- IC50 [2]: 0.0353 µM

Compound: Cc1nc(NC(C)c2ccc(Br)s2)c2cc(N3CCN(C)C(=O)C3)ccc2n1 (stereo not shown) [Example 434, 4-(4-{[1-(5-bromothiophen-2-yl)ethyl]amino}-2-methylquinazolin-6-yl)-1-methylpiperazin-2-one]
- IC50 [1]: 2.84 µM
- IC50 [2]: 2.81 µM

Compound: COc1cc2nc(C)nc(NC(C)c3ccc(-c4ccccc4C(O)Cc4ccccc4)s3)c2cc1OC (stereo not shown) [Example 376, 1-[2-(5-{1-[(6,7-dimethoxy-2-methylquinazolin-4-yl)amino]ethyl}thiophen-2-yl)phenyl]-2-phenylethanol]
- IC50 [1]: 5.46 µM
- IC50 [2]: 17.9 µM

Compound: Cc1nc(NC(C)c2ccc(-c3ccccc3CN(C)C)s2)c2cc(N)ccc2n1 (stereo not shown) [Example 423, N4-[1-(5-{2-[(dimethylamino)methyl]phenyl}-2-thienyl)ethyl]-2-methylquinazoline-4,6-diamine]
- IC50 [1]: 0.204 µM
- IC50 [2]: 0.303 µM

Compound: COc1cc2nc(C)nc(NC(C)c3cc(Cl)c(Br)s3)c2cc1OC (stereo not shown) [Example 432, N-[1-(5-bromo-4-chlorothiophen-2-yl)ethyl]-6,7-dimethoxy-2-methylquinazolin-4-amine]
- IC50 [1]: 16.7 µM
- IC50 [2]: > 20 µM

Compound: COc1cc2nc(C)nc(NC(C)c3ccc(-c4ccccc4CNc4ccccc4)s3)c2cc1OC (stereo not shown) [Example 362, 6,7-dimethoxy-2-methyl-N-[1-(5-{2-[(phenylamino)methyl]phenyl}thiophen-2-yl)ethyl]quinazolin-4-amine]
- inhibition at 20 µM [1]: 26%
- inhibition at 20 µM [2]: 30%

Compound: CC(=O)Nc1ccc2nc(C)nc(NC(C)c3ccc(-c4ccccc4CN(C)C)s3)c2c1 (stereo not shown) [Example 420, N-(4-{[1-(5-{2-[(dimethylamino)methyl]phenyl}thiophen-2-yl)ethyl]amino}-2-methylquinazolin-6-yl)acetamide]
- IC50 [1]: 0.303 µM
- IC50 [2]: 0.579 µM

Compound: Cc1nc(NC(C)c2ccc(-c3ccccc3CN(C)C)s2)c2cc(NS(C)(=O)=O)ccc2n1 (stereo not shown) [Example 438, N-(4-{[1-(5-{2-[(dimethylamino)methyl]phenyl}thiophen-2-yl)ethyl]amino}-2-methylquinazolin-6-yl)methanesulfonamide]
- IC50 [1]: 0.0902 µM
- IC50 [2]: 0.116 µM

Compound: Cc1nc(NC(C)c2ccc(Br)s2)c2cc(N3CCCC3)ccc2n1 (stereo not shown) [Example 419, N-[1-(5-bromothiophen-2-yl)ethyl]-2-methyl-6-(pyrrolidin-1-yl)quinazolin-4-amine]
- IC50 [1]: 6.45 µM
- IC50 [2]: 14.3 µM

Compound: Cc1nc(N[C@H](C)c2cccc(Cl)c2)c2cc(C(C)(C)O)ccc2n1 [Example 392, 2-(4-{[(1R)-1-(3-chlorophenyl)ethyl]amino}-2-methylquinazolin-6-yl)propan-2-ol]
- IC50 [1]: 0.338 µM
- IC50 [2]: 1.52 µM

Compound: COc1cc2nc(C)nc(NC(C)c3ccc(-c4ccc(C5CC5)cc4CN(C)C)s3)c2cc1OC (stereo not shown) [Example 443, N-[1-(5-{4-cyclopropyl-2-[(dimethylamino)methyl]phenyl}thiophen-2-yl)ethyl]-6,7-dimethoxy-2-methylquinazolin-4-amine]
- IC50 [1]: 0.112 µM
- IC50 [2]: 0.069 µM

Compound: COc1cc2nc(C)nc(NC(C)c3cc(C)c(-c4ccccc4CN(C)CCO)s3)c2cc1OC (stereo not shown) [Example 401, 2-{[2-(5-{1-[(6,7-dimethoxy-2-methylquinazolin-4-yl)amino]ethyl}-3-methyl-2-thienyl)benzyl](methyl)amino}ethanol]
- IC50 [1]: 0.0763 µM
- IC50 [2]: 0.0823 µM

Compound: COc1cc2nc(C)nc(NC(C)c3ccc(-c4ccc(C#N)cc4CN(C)C)s3)c2cc1OC (stereo not shown) [Example 413, 4-(5-{1-[(6,7-dimethoxy-2-methylquinazolin-4-yl)amino]ethyl}thiophen-2-yl)-3-[(dimethylamino)methyl]benzonitrile]
- IC50 [1]: 0.223 µM
- IC50 [2]: 0.213 µM

Compound: COc1cc2nc(C)nc(NC(C)c3ccc(-c4cccc(Cl)c4CN)s3)c2cc1OC (stereo not shown) [Example 397, N-[1-{5-[2-(aminomethyl)-3-chlorophenyl]thiophen-2-yl}ethyl]-6,7-dimethoxy-2-methylquinazolin-4-amine]
- IC50 [1]: 0.297 µM
- IC50 [2]: 0.249 µM

Compound: Cc1nc(N[C@H](C)c2cccc(Cl)c2)c2cc(-c3cn[nH]c3)ccc2n1 [Example 405, N-[(1R)-1-(3-chlorophenyl)ethyl]-2-methyl-6-(1H-pyrazol-4-yl)quinazolin-4-amine]
- IC50 [1]: 1.11 µM
- IC50 [2]: 1.31 µM

Compound: COc1cc2nc(C)nc(NC(C)c3ccc(-c4ccccc4C(O)c4ccccc4)s3)c2cc1OC (stereo not shown) [Example 374, [2-(5-{1-[(6,7-dimethoxy-2-methylquinazolin-4-yl)amino]ethyl}thiophen-2-yl)-phenyl](phenyl)methanol]
- IC50 [1]: 1.6 µM
- IC50 [2]: 6.5 µM

Compound: Cc1nc(N[C@H](C)c2cccc(Cl)c2)c2cc(CO)ccc2n1 [Example 373, (4-{[(1R)-1-(3-chlorophenyl)ethyl]amino}-2-methylquinazolin-6-yl)methanol]
- IC50 [1]: 1.52 µM
- IC50 [2]: 9.21 µM

Compound: COc1cc2nc(C)nc(NC(C)c3ccc(-c4ccc(C)cc4CN(C)C)s3)c2cc1OC (stereo not shown) [Example 442, N-[1-(5-{2-[(dimethylamino)methyl]-4-methylphenyl}thiophen-2-yl)ethyl]-6,7-dimethoxy-2-methylquinazolin-4-amine]
- IC50 [1]: 0.0453 µM
- IC50 [2]: 0.0451 µM

Compound: Cc1nc(N[C@H](C)c2cccc(Cl)c2)c2cc(C3CC3)ccc2n1 [Example 407, N-[(1R)-1-(3-chlorophenyl)ethyl]-6-cyclopropyl-2-methylquinazolin-4-amine]
- IC50 [1]: 1.25 µM
- IC50 [2]: 2.14 µM

Compound: COc1cc2nc(C)nc(NC(C)c3ccc(=O)[nH]c3)c2cc1OC (single isomer, unassigned; enantiomer 1) [Example 227, 5-{1-[(6,7-dimethoxy-2-methylquinazolin-4-yl)amino]ethyl}pyridin-2(1H)-one, Enantiomer 1]
- inhibition at 20 µM [1]: 48%
- inhibition at 20 µM [2]: 34%

Compound: COc1cc2nc(C)nc(NC(C)c3ccc(C4=CCCC4)s3)c2cc1OC (stereo not shown) [Example 231, N-{1-[5-(cyclopent-1-en-1-yl)thiophen-2-yl]ethyl}-6,7-dimethoxy-2-methylquinazolin-4-amine]
- inhibition at 20 µM [1]: 56%
- inhibition at 20 µM [2]: 24%

Compound: COc1cc2nc(C)nc(NC(C)c3ccc(-c4ccccc4CN(C)C)s3)c2cc1OC (single isomer, unassigned) [Example 390, N-[1-(5-{2-[(dimethylamino)methyl]phenyl}thiophen-2-yl)ethyl]-6,7-dimethoxy-2-methylquinazolin-4-amine]
- IC50 [1]: 5 µM
- IC50 [2]: 12.9 µM

Compound: CNCc1ccccc1-c1sc(C(C)Nc2nc(C)nc3cc(OC)c(OC)cc23)cc1C (stereo not shown) [Example 402, 6,7-di methoxy-2-methyl-N-[1-(4-methyl-5-{2-[(methylamino)methyl]phenyl}thiophen-2-yl)ethyl]quinazolin-4-amine]
- IC50 [1]: 0.0828 µM
- IC50 [2]: 0.0981 µM

Compound: COc1cc2nc(C)nc(NC(C)c3ccc(-c4ccccc4C4CC(=O)N4)s3)c2cc1OC (stereo not shown) [Example 411, 4-[2-(5-{1-[(6,7-dimethoxy-2-methylquinazolin-4-yl)amino]ethyl}thiophen-2-yl)phenyl]azetidin-2-one]
- IC50 [1]: 14.5 µM
- IC50 [2]: > 20 µM

Compound: COc1cc2nc(C)nc(NC(C)c3cc(Cl)c(-c4ccccc4CN)s3)c2cc1OC (stereo not shown) [Example 430, N-[1-{5-[2-(aminomethyl)phenyl]-4-chlorothiophen-2-yl}ethyl]-6,7-dimethoxy-2-methylquinazolin-4-amine]
- IC50 [1]: 0.594 µM
- IC50 [2]: 0.584 µM

Compound: COc1cc2nc(C)nc(NC(C)c3cc(Cl)c(-c4ccccc4CN(C)C)s3)c2cc1OC (stereo not shown) [Example 431, N-[1-(4-chloro-5-{2-[(dimethylamino)methyl]phenyl}thiophen-2-yl)ethyl]-6,7-dimethoxy-2-methylquinazolin-4-amine]
- IC50 [1]: 0.324 µM
- IC50 [2]: 0.302 µM
